Results as given in patent publication US4414334A, “Oxygen scavenging with enzymes” (Phillips Petroleum Company, priority 1981, dated 1983).

Legend:
[1] = target: alcohol oxidase (alcohol: oxygen oxidoreductase) isolated from Pichia pastoris (Komagataella phaffii, UniProt F2QY27)
[2] = substrate: CO; assay: purified protein, by the assay type; conditions: other: Pichia pastoris alcohol oxidase; substrate methanol

C=O [HCHO, formaldehyde]
Inhibitors (inhibitory concentration of HCHO) ([1]; Table I lists HCHO as inhibitor at >30 mM): > 30 mM

CO [methanol]
Km ([1]; read-out: apparent Michaelis constant, Km, for methanol, substrate methanol): ~4 mM

B1: alcohol oxidase (alcohol: oxygen oxidoreductase) isolated from Pichia pastoris (Komagataella phaffii CBS 7435) (protein)
chain: AIPEEFDILVLGGGSSGSCIAGRLANLDHSLKVGLIEAGENNLNNPWVYLPGIYPRNMKLDSKTASFYTSNPSPHLNGRRAIVPCANVLGGGSSINFMMYTRGSASDYDDFQAEGWKTKDLLPLMKKTETYQRACNNPDIHGFEGPIKVSFGNYTYPVCQDFLRASESQGIPYVDDLEDLVTAHGAEHWLKWINRDTGRRSDSAHAFVHSTMRNHDNLYLICNTKVDKIIVEDGRAAAVRTVPSKPLNPKKPSHKIYRARKQIVLSCGTISSPLVLQRSGFGDPIKLRAAGVKPLVNLPGVGRNFQDHYCFFSPYRIKPQYESFDDFVRGDAEIQKRVFDQWYANGTGPLATNGIEAGVKIRPTPEELSQMDESFQEGYREYFEDKPDKPVMHYSIIAGFFGDHTKIPPGKYMTMFHFLEYPFSRGSIHITSPDPYAAPDFDPGFMNDERDMAPMVWAYKKSRETARRMDHFAGEVTSHHPLFPYSSEARALEMDLETSNAYGGPLNLSAGLAHGSWTQPLKKPTAKNEGHVTSNQVELHPDIEYDEEDDKAIENYIREHTETTWHCLGTCSIGPREGSKIVKWGGVLDHRSNVYGVKGLKVGDLSVCPDNVGCNTYTTALLIGEKTATLVGEDLGYSGEALDMTVPQFKLGTYEKTGLARF
Km [2]: 4 mM
